The text below walks through data of patent publication US20250145632A1, “Pyrimidine Heterocyclic Compound, Preparation Method Thereof and use Thereof in Medicine” (INSILICO MEDICINE IP LIMITED, priority 2021, published 2025).

pIC50: −log10 of the molar value.

Data set [1] in a line: In-vivo pharmacokinetic experiment in male beagles. More on the design: species or system dog. The conditions noted are these: beagle. Here is the method: Experimental method and conditions: male beagles with weight of 8-11 kg were purchased from Jiangsu Marshall Biotechnology Co., Ltd. The to-be-tested compound was administered to 3 dogs at 0.2 mg/kg or 1.0 mg/kg (solvent: 2% DMSO+10% Kolliphor HS 15+88% (6.818% of hydroxypropyl-beta-cyclodextrin aqueous solution), 0.2 mg/mL or 1.0 mg/mL) by intravenous injection, and administered to 3 dogs at 2 mg/kg (solvent: 5% DMSO+95% (10% hydroxypropyl-beta-cyclodextrin salt aqueous solution, 0.4 mg/mL) by oral intragastric administration. Head vein blood sampling was carried out 5 min, 15 min, 30 min, 1 h, 2 h, 4 h, 8 h and 24 h after the administration, and 500 μL of each sample was collected. After collection, the samples were placed on ice, and plasma was centrifugally separated within 15 min for testing. The concentration of the medicine in the plasma was detected by liquid chromatography-tandem mass spectrometry (LC/MS/MS), and pharmacokinetic parameters were calculated with Phoenix WinNonlin software when the concentration was measured.

Data set [2] relates to HCC70 human breast ductal cancer cells. The experiment in a line: HCC70 tumor cell proliferation inhibition (CellTiter-Glo). The conditions noted are these: 3 d culture. It counts as cell-based. As to the method:
HCC70 was purchased from ATCC; article No.: CRL-2315; RPMI1640 was purchased from Gibco; article No.: 11875-093; Pancreatin (including EDTA) was purchased from Gibco; article No.: 25200-072; FBS was purchased from Gibco; article No.: 10099-141C; CellTiter-Glo was purchased from Promega; article No.: G7573; DMSO was purchased from VWR AMRESCO; article No.: 0231-500ML; Staurosporine was purchased from Selleck; article No.: S1421; a cell counter was purchased from CHEMOMETEC; model: NC-200; and a microplate reader was purchased from PerkinElmer; Model: Envison.
(§1) HCC70 was human breast ductal cancer cells cultured in an RPMI-1640 culture medium containing 10% FBS. Cells in logarithmic phase were taken, and the cells were subjected to digesting, collecting and counting with pancreatin-EDTA, 2000 HCC70 cells/well were inoculated in a 384-well cell plate, and were cultured in 5% CO2 overnight. A 1000× compound stock solution with 3.16 times of gradient concentration was prepared with DMSO, and was diluted 100 times to 10× compound stock solution with a culture medium, and 10× compound stock solution was added into each cell culture well on the next day after cell inoculation, wherein the final concentration was 1×, and the DMSO content was 0.1%. The cell group was treated with DMSO as an experimental control (control), and the cell group was treated with 5 μM of Staurosporine as a blank control (blank).
(In general: In ATP-based viability assays light output follows the ATP content of the culture.)

Data set [3] has as its system OVCAR-3 human ovarian adenocarcinoma cells. The experiment in a line: OVCAR-3 tumor cell proliferation inhibition (CellTiter-Glo). The class given is cell-based. The conditions noted are these: 3 d culture. As to the method: OVCAR-3 was purchased from ATCC; article No.: HTB-161; RPMI1640 was purchased from Gibco; article No.: 11875-093; Pancreatin (including EDTA) was purchased from Gibco; article No.: 25200-072; FBS was purchased from Gibco; Article No.: 10091-148; CellTiter-Glo was purchased from Promega; article No.: G7573; Bovine insulin was purchased from absin; article No.: abs9169; DMSO was purchased from VWR AMRESCO; article No.: 0231-500ML; Staurosporine was purchased from Selleck; article No.: S1421; a cell counter was purchased from CHEMOMETEC; model: NC-200; and a microplate reader was purchased from PerkinElmer; Model: Envison.
as §1, with “OVCAR-3” for “HCC70”, “ovarian adenocarcinoma” for “breast ductal cancer”, “20% FBS and 0.01 mg/mL of Bovine insulin.” for “10% FBS.”

Setting [4] is: male, dog, plasma, intravenous injection 1.0 mg/kg.
The mark [5] stands for this setting: male, dog, plasma, oral administration 2 mg/kg.

Turning to `CC1(C)CC[C@H](Nc2ncc(C(F)(F)F)c(-c3c[nH]c4c(P(C)(C)=O)c(C#N)ccc34)n2)CN1` [Compound 101, reference compound], the “CL” value in data set [1] (intravenous injection 1.0 mg/kg) was 14.5 mL/min/kg. Moreover, in data set [1] (oral administration 2 mg/kg), the “Cmax” value came out at 123 ng/mL and the “F(%)” value came out at 65.8%. In data set [1] (setting [4]), the AUC(0-inf) is 1230 ng·h/mL and the half-life is 6.88 h. Besides, the Vd in data set [1] (male, dog, plasma, intravenous injection 1.0 mg/kg, read-out: Vss) turned out to be 7.57 L/kg. In data set [1] (setting [5]), this compound showed an AUC(0-inf) of 1590 ng·h/mL and a half-life of 6.61 h.

Consider `CN1CCC(F)CN(C)C2CC[C@@H](C2)Nc2ncc(C(F)(F)F)c(n2)-c2c[nH]c3c(P(C)(C)=O)c(ccc23)C1=O` (stereo partly drawn) [Compound Z89, (41S)-1^7-(dimethylphosphoryl)-7-fluoro-5,10-dimethyl-2^5-(trifluoromethyl)-1^1H-3,5,10-triaza-1(3,6)-indola-2(4,2)-pyrimidina-4(1,3)-cyclopentanacycloundecaphan-11-one], for which the pIC50 in data set [2] and in data set [3] was below 5.00 throughout.

In the case of `CN1CCOCCN(C)[C@H]2CC[C@@H](C2)Nc2ncc(C(F)(F)F)c(n2)-c2ccc3c(c[nH]c3n2)C1=O` [Compound Z91, (4^1S,4^3S)-5,11-dimethyl-2^5-(trifluoromethyl)-1^1H-8-oxa-3,5,11-triaza-1(3,6)-pyrrolo[2,3-b]pyridina-2(4,2)-pyrimidina-4(1,3)-cyclopentanacyclododecaphan-12-one], the pIC50 in data set [2] is 6.36; in data set [3] it was 6.09.

Take `CN1CC(F)(F)CCNC2CC[C@@H](C2)Nc2ncc(C(F)(F)F)c(n2)-c2c[nH]c3c(P(C)(C)=O)c(ccc23)C1=O` [Compound Z66, (41 S,4^3S)-1^7-(dimethylphosphoryl)-8,8-difluoro-10-methyl-2^5-(trifluoromethyl)-1^1H-3,5,10-triaza-1(3,6)-indola-2(4,2)-pyrimidina-4(1,3)-cyclopentanacycloundecaphan-11-one]: the pIC50 in data set [2] was 7.98; in data set [3], 7.67.

Turning to `CN1CC(F)CCNC2CCC(C2)Nc2ncc(C(F)(F)F)c(n2)-c2c[nH]c3c(P(C)(C)=O)c(ccc23)C1=O` [Compound Z77, (4^1S,4^3S,8S)-17-(dimethylphosphoryl)-8-fluoro-10-methyl-2^5-(trifluoromethyl)-1′H-3,5,10-triaza-1(3,6)-indola-2(4,2)-pyrimidina-4(1,3)-cyclopentanacycloundecaphan-11-one], the pIC50 in data set [2] was 8.01; in data set [3] it was 7.93.

`CP(C)(=O)c1c2ccc3c(c[nH]c13)-c1nc(ncc1C(F)(F)F)N[C@H]1CC[C@@H](C1)NCC[C@@H](F)CNC2=O` (single isomer, unassigned) [Compound Z68-1]: the pIC50 in data set [2] was 7.99; in data set [3], 7.45.

Turning to `CN1CCC(F)(F)CN(C)C2CC[C@@H](C2)Nc2ncc(C(F)(F)F)c(n2)-c2c[nH]c3c(P(C)(C)=O)c(ccc23)C1=O` [Compound Z86, (4^1S,4^3S)-1^7-(dimethylphosphoryl)-7,7-difluoro-5,10-dimethyl-2^5-(trifluoromethyl)-1^1H-3,5,10-triaza-1(3,6)-indola-2(4,2)-pyrimidina-4(1,3)-cyclopentanacycloundecaphan-11-one], the pIC50 in data set [2] and in data set [3] was below 5.00 in each case.

For `CN1CCCCN(C)[C@H]2CC[C@@H](C2)Nc2ncc(C(F)(F)F)c(n2)-c2c[nH]c3c(C#N)c(ccc23)C1=O` [Compound Z84, (4^1S,4^3S)-5,10-dimethyl-11-oxo-2^5-(trifluoromethyl)-1^1H-3,5,10-triaza-1(3,6)-indola-2(4,2)-pyrimidina-4(1,3)-cyclopentanacycloundecaphane-1^7-carbonitrile], the figures for the pIC50 in data set [2] and in data set [3] were 6.58 and 6.70, respectively.

In the case of `COc1cc2c(cn1)-c1ccc3c(c[nH]c3c1)-c1nc(ncc1C(F)(F)F)N[C@H]1CC[C@@H](C1)NCCCC2` [Compound Z73], the pIC50 was 6.63 in data set [2] (Homo sapiens, HCC70, 72 h) and 5.98 in data set [3] (Homo sapiens, OVCAR-3, 72 h).

As to `CN1CCC(F)CN(C)C2CC[C@@H](C2)Nc2ncc(C(F)(F)F)c(n2)-c2c[nH]c3c(P(C)(C)=O)c(ccc23)C1=O` (some centres unmarked) [Compound Z90, (4^1S)-1^7-(dimethylphosphoryl)-7-fluoro-5,10-dimethyl-2^5-(trifluoromethyl)-1^1H-3,5,10-triaza-1(3,6)-indola-2(4,2)-pyrimidina-4(1,3)-cyclopentanacycloundecaphan-11-one], the pIC50 in data set [2] and in data set [3] was below 5.00 each time.

With `CN1CCOCCN(C)[C@H]2CC[C@@H](C2)Nc2ncc(C(F)(F)F)c(n2)-c2c[nH]c3c(P(C)(C)=O)c(ccc23)C1=O` [Compound Z63, (4^1S,4^3S)-1^7-(dimethylphosphoryl)-5,11-dimethyl-2^5-(trifluoromethyl)-1^1H-8-oxa-3,5,11-triaza-1(3,6)-indola-2(4,2)-pyrimidina-4(1,3)-cyclopentanacyclododecaphan-12-one], the pIC50 in data set [2] was 6.87; in data set [3], 6.71.

On to `CN1CCCCN(C)[C@H]2CC[C@@H](C2)Nc2ncc(C(F)(F)F)c(n2)-c2c[nH]c3nc(ccc23)C1=O` [Compound Z92, (4^1S,4^3S)-5,10-dimethyl-2^5-(trifluoromethyl)-1^1H-3,5,10-triaza-1(3,6)-pyrrolo[2,3-b]pyridina-2(4,2)-pyrimidina-4(1,3)-cyclopentanacycloundecaphan-11-one], for which the figures for the pIC50 in data set [2] and in data set [3] were 6.97 and 6.46, respectively.

Take `N#Cc1c2ccc3c(c[nH]c13)-c1nc(ncc1C(F)(F)F)N[C@H]1CC[C@@H](C1)NCCCCNC2=O` [Compound Z23, (4^1S,4^3S)-11-oxo-2^5-(trifluoromethyl)-1^1H-3,5,10-triaza-1(3,6)-indola-2(4,2)-pyrimidina-4(1,3)-cyclopentanacycloundecaphane-17-carbonitrile]: the pIC50 in data set [2] is 7.18; in data set [3] it was 6.87.

Regarding `O=c1cc2c(c[nH]1)-c1ccc3c(c[nH]c3c1)-c1nc(ncc1C(F)(F)F)N[C@H]1CC[C@@H](C1)NCCCC2` [Compound Z74], the pIC50 in data set [2] (Homo sapiens, HCC70, 72 h) was 5.90; in data set [3] (Homo sapiens, OVCAR-3, 72 h), 5.46.

Consider `CN1CCC(F)(F)CN(C)C2CC[C@@H](C2)Nc2ncc(C(F)(F)F)c(n2)-c2c[nH]c3c(P(C)(C)=O)c(ccc23)C1=O` [Compound Z85, (4^1S,4^3S)-1^7-(dimethylphosphoryl)-7,7-difluoro-5,10-dimethyl-2^5-(trifluoromethyl)-1^1H-3,5,10-triaza-1(3,6)-indola-2(4,2)-pyrimidina-4(1,3)-cyclopentanacycloundecaphan-11-one], for which the pIC50 was 6.29 in data set [2] and 5.74 in data set [3].

On to `CP(C)(=O)c1c2ccc3c(c[nH]c13)-c1nc(ncc1C(F)(F)F)N[C@H]1CC[C@@H](C1)NCC[C@H](F)CNC2=O` (single isomer, unassigned) [Compound Z68-2], for which the pIC50 is 8.50 in data set [2] and 8.05 in data set [3].

For orientation: Cmax means the maximum level reached in the sampled fluid or tissue. As a reminder, the AUC(0-inf) is total exposure, with the tail of the curve extrapolated. What is called half-life is the time in which the quantity being followed falls by half. The low end stands for rapid decline, the high end for slow decline. By pIC50 is commonly meant the IC50 on a negative log10 scale, so that one unit is a factor of ten.
